We go through 1 compound from ChEMBL document CHEMBL5291721, “A preclinical secondary pharmacology resource illuminates target-adverse drug reaction associations of marketed drugs” (Nat Commun, 2023).

SMILES strings stand for the structures.

A word on the AC50: it is the concentration at which the activity in the assay is half-maximal.

For one assay, the target named is T1, Endothelin-1 receptor (Homo sapiens, UniProt P25101).
T1 sequence (P25101 whole entry): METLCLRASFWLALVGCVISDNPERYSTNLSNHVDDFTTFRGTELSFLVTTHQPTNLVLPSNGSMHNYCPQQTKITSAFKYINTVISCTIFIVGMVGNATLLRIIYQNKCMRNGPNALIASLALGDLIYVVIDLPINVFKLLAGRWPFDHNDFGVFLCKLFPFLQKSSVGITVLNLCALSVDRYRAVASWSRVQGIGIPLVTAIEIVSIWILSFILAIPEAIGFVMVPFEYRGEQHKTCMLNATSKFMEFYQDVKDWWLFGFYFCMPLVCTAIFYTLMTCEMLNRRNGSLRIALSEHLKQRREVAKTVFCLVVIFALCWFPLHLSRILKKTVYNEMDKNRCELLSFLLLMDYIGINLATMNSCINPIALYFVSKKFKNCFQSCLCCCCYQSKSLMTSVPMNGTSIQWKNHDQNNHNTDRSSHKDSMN

In assay [1] the target is Muscarinic acetylcholine receptor M3 (Homo sapiens, UniProt P20309).
Muscarinic acetylcholine receptor M3, sequence (P20309 whole entry): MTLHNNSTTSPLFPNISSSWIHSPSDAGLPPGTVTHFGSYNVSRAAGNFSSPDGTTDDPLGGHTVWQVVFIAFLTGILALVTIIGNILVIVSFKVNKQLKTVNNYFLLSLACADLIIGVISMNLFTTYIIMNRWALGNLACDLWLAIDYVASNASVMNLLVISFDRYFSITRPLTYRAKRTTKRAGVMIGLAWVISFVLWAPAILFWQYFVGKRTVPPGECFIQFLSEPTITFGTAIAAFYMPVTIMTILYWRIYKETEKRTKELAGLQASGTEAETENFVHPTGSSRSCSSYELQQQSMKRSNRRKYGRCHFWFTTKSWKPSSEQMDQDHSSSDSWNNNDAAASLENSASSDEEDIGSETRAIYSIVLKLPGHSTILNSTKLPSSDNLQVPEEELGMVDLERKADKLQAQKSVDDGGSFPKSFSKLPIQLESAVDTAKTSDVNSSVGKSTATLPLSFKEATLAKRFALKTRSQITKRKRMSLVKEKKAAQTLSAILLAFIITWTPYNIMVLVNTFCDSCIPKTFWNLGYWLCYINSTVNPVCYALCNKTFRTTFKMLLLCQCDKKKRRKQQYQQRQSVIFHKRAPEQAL
For assay [2], the target named is T2, Histamine H1 receptor (Homo sapiens, UniProt P35367). Type of assay: functional, cell-based.
T2 sequence (P35367 whole entry): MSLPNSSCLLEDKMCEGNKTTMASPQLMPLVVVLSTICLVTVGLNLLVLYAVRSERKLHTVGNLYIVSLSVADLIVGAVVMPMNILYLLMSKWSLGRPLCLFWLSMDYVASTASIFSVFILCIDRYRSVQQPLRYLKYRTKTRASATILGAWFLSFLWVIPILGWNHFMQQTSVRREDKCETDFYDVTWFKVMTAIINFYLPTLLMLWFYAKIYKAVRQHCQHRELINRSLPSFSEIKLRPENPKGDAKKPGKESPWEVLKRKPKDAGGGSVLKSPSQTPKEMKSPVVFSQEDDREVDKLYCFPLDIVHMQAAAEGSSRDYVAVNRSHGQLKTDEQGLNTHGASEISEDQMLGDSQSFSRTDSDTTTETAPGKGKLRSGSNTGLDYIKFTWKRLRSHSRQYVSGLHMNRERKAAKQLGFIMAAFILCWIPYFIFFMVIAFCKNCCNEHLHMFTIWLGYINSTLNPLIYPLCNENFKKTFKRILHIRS
For assay [3], the target named is Sodium-dependent serotonin transporter (Homo sapiens, UniProt P31645).
Sodium-dependent serotonin transporter, sequence (P31645 whole entry): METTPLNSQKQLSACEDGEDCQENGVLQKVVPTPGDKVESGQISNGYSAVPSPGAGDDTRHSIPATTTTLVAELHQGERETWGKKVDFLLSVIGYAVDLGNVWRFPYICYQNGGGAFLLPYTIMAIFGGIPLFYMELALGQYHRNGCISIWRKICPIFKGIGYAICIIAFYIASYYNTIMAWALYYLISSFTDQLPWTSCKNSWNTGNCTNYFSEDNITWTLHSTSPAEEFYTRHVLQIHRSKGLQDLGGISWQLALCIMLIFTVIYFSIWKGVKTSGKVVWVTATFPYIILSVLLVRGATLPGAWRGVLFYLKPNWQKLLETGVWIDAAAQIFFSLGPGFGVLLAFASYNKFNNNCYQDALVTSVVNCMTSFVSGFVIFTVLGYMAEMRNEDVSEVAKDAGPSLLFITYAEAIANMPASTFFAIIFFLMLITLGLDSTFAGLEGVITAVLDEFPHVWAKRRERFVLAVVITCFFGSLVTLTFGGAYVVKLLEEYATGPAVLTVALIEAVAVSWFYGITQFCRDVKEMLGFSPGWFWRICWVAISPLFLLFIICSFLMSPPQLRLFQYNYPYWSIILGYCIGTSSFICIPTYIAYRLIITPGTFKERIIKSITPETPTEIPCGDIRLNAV
The target in assay [4] is Beta-2 adrenergic receptor (Homo sapiens, UniProt P07550). Type of assay: functional, cell-based.
Beta-2 adrenergic receptor, sequence (P07550 whole entry): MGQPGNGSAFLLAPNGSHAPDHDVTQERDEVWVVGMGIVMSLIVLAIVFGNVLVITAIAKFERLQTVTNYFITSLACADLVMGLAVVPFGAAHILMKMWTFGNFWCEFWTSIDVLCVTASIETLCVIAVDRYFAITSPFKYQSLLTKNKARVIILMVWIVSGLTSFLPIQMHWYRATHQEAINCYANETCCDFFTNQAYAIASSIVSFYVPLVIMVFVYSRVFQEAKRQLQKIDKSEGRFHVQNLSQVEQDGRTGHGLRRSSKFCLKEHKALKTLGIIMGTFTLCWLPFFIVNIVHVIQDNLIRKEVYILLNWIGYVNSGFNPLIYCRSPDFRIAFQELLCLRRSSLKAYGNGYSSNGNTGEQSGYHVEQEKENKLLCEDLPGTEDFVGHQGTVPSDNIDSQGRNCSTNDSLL
For a further assay, the target named is T3, Progesterone receptor (Homo sapiens, UniProt P06401).
T3 sequence (P06401 whole entry): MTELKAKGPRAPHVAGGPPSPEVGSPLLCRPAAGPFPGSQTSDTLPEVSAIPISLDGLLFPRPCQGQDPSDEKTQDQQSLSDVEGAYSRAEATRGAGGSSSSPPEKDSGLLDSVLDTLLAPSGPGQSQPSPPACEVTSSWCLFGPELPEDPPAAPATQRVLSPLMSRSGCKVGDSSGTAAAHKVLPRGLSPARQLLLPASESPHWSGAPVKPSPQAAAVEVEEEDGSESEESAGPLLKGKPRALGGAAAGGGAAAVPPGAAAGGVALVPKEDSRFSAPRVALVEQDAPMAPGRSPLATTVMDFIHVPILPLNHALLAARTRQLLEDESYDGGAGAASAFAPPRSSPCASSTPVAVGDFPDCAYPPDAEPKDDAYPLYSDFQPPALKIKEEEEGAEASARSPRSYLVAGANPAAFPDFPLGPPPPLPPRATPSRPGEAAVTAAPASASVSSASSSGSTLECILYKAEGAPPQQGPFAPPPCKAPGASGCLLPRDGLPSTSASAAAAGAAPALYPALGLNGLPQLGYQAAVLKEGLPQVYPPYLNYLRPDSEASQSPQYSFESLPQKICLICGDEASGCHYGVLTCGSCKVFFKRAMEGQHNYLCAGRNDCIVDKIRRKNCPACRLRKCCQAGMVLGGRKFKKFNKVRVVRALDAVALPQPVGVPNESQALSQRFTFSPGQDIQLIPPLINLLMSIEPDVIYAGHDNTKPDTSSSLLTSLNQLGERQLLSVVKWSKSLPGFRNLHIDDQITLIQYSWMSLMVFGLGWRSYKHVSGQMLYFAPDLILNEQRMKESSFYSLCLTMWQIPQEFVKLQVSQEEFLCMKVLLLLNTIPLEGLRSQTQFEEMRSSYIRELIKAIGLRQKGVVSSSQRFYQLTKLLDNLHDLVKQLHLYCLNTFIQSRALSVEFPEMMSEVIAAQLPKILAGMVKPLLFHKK
Type of assay: functional.

Assay [5] addresses T4, 5-hydroxytryptamine receptor 1A (Homo sapiens, UniProt P08908).
T4 sequence (P08908 whole entry): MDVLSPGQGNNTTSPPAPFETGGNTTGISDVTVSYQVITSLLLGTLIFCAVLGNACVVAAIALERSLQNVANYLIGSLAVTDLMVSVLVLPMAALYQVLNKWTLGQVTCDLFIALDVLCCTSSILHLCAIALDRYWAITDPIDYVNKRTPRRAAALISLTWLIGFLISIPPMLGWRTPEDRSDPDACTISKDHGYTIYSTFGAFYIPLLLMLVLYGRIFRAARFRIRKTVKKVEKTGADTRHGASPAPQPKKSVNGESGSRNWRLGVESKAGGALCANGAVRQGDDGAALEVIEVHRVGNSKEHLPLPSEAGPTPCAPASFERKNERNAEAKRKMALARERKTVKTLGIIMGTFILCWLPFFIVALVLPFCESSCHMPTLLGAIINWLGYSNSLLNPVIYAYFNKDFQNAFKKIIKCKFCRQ
Type of assay: functional, cell-based.

The target in assay [6] is T2, Histamine H1 receptor. Type of assay: functional, cell-based. The source holds these as a separate data set.
In another assay the target is Mu-type opioid receptor (Homo sapiens, UniProt P35372). Put plainly: biochemical. Type of assay: functional.
Mu-type opioid receptor, sequence (P35372 whole entry): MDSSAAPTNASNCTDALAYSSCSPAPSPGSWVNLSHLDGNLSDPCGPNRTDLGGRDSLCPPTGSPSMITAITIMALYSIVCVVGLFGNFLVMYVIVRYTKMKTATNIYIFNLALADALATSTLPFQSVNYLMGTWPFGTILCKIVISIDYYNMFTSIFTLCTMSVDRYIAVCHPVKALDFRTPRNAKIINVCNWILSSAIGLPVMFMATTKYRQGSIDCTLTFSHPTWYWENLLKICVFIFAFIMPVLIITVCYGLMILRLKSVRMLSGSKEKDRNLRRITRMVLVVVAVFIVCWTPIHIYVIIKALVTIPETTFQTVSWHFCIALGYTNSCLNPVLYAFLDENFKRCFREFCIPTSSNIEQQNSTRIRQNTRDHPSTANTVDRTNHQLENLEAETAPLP
Assay [7] has as its target T5, Equilibrative nucleoside transporter 1 (Homo sapiens, UniProt Q99808).
T5 sequence (Q99808 whole entry): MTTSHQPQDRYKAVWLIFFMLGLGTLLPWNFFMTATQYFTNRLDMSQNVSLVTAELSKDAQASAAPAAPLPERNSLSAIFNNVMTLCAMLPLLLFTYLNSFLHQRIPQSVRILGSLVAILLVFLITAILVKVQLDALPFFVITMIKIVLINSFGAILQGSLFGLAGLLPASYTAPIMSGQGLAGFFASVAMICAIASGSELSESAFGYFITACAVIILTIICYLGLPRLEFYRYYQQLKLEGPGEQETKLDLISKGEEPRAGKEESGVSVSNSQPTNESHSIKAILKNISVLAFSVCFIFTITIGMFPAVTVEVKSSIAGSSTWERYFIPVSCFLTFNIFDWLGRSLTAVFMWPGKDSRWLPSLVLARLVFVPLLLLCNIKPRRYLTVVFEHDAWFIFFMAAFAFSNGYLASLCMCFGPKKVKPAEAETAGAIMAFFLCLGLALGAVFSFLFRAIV
Further: assay procedure not described here.

For `C[C@]12C=CC(=O)C=C1C(Cl)=C[C@@H]1[C@@H]2[C@@H](O)C[C@@]2(C)[C@H]1CC[C@]2(O)C(=O)CO` [CLOPREDNOL], the AC50 at Endothelin-1 receptor is more than 30 µM; in assay [1] it was more than 30 µM; at Histamine H1 receptor [2], more than 30 µM; in [3] it was more than 30 µM; in [4], more than 30 µM; at Progesterone receptor, more than 3 µM. In addition, the AC50 (in [5]; at Histamine H1 receptor [6]; on Mu-type opioid receptor; in [7]) was more than 30 µM throughout.
